What was measured:
[1] = Release of parent in human plasma; assay type: in vitro ADME; settings: prodrug conversion to bioactive parent

Row | solubility (physchem) [µg/mL] | SMILES | Release of Parent in Human Plasma [1] | solubility (Solubility) [µg/mL]
1 | < 6 | C[C@@H](c1nc(-c2ccc(C#N)cc2)cs1)[C@](O)(Cn1cncn1)c1ccc(F)cc1F [Parent, (2R,3R)-3-[4-(4-cyanophenyl)thiazol-2-yl]-2-(2,4-difluorophenyl)-1-(1H-1,2,4-triazol-1-yl)-butan-2-ol] | – | –
2 | – | CCN(CC)Cc1ccc(C(=O)OCO[C@@](Cn2cncn2)(c2ccc(F)cc2F)[C@@H](C)c2nc(-c3ccc(C#N)cc3)cs2)cc1 [Example 1, (2R,3R)-3-[4-(4-cyanophenyl)thiazol-2-yl]-2-(2,4-difluorophenyl)-1-(1H-1,2,4-triazol-1-yl)-2-[[p-(N,N-diethylaminomethyl)benzoyloxy]methoxy]butane] | Yes | > 1000
3 | – | C[C@@H](c1nc(-c2ccc(C#N)cc2)cs1)C(Cn1cncn1)(OP(=O)([O-])[O-])c1ccc(F)cc1F.[Na+].[Na+] (some centres unmarked) [Example 7 of WO 97/28169] | No | > 1000
